Data published in patent publication US11400058B2, “Intravenous formulations of coenzyme Q10 (CoQ10) and methods of use thereof” (Berg LLC, priority 2010, dated 2022).
Marks after values point to notes of the source that are not given here.

Assay: 4-week repeat-dose toxicology study in rats with 2-week recovery (Study 20000328)
Conditions: for Died or Sacrificed Moribund: animals of 15
[1] = 62.5 mg/kg M, end of dosing, animals of 10
[2] = 62.5 mg/kg M, end of recovery, animals of 5
[3] = 125 mg/kg F, end of dosing, animals of 10
[4] = 125 mg/kg F, end of recovery, animals of 5

COC1=C(OC)C(=O)C(C/C=C(\C)CC/C=C(\C)CC/C=C(\C)CC/C=C(\C)CC/C=C(\C)CC/C=C(\C)CC/C=C(\C)CC/C=C(\C)CC/C=C(\C)CCC=C(C)C)=C(C)C1=O [CoQ10, Coenzyme Q10]
Spleen Histiocytic Infiltration, Mild [1]: 0
Spleen Histiocytic Infiltration, Moderate [1]: 1
ALT (62.5 mg/kg M, end of recovery): 20 IU/L
APPT (62.5 mg/kg M, end of recovery): 16.7 s
AST (62.5 mg/kg M, end of recovery): 79 IU/L
Body Weight, percent difference from controls (62.5 mg/kg M, end of recovery): +7.4%
Food Consumption, percent difference from controls (62.5 mg/kg M, end of recovery): +5.8%
GGT (62.5 mg/kg M, end of recovery): 0.00 IU/L
Liver weight (absolute), percent difference from controls (62.5 mg/kg M, end of recovery): +5.0%
Spleen weight (absolute), percent difference from controls (62.5 mg/kg M, end of recovery): −22.2%
Adrenal Gland Vacuolation [2]: 5
Adrenal Gland Vacuolation, Marked [2]: 0
Adrenal Gland Vacuolation, Mild [2]: 3
Adrenal Gland Vacuolation, Minimal [2]: 2
Adrenal Gland Vacuolation, Moderate [2]: 0
Gross Pathology: Enlarged Spleen [2]: 0
Gross Pathology: Pale Iliac Lymph Node [2]: 2
Gross Pathology: Pale Liver [2]: 2
Gross Pathology: Pale Pancreatic Lymph Node [2]: 1
Liver Focal Necrosis [2]: 0
Liver Focal Necrosis, Mild [2]: 0
Liver Focal Necrosis, Minimal [2]: 0
Liver Histiocytic Infiltration [2]: 1
Liver Histiocytic Infiltration, Mild [2]: 0
Liver Histiocytic Infiltration, Minimal [2]: 1
Liver Histiocytic Infiltration, Moderate [2]: 0
Liver Multifocal Necrosis [2]: 0
Liver Multifocal Necrosis, Mild [2]: 0
Liver Multifocal Necrosis, Moderate [2]: 0
Liver Vacuolation [2]: 5
Liver Vacuolation, Mild [2]: 1
Liver Vacuolation, Minimal [2]: 4
Liver Vacuolation, Moderate [2]: 0
Lymph Node, Man. Histiocytic Infiltration [2]: 4
Lymph Node, Man. Histiocytic Infiltration, Mild [2]: 0
Lymph Node, Man. Histiocytic Infiltration, Minimal [2]: 4
Lymph Node, Man. Histiocytic Infiltration, Moderate [2]: 0
Lymph Node, Mes. Histiocytic Infiltration [2]: 5
Lymph Node, Mes. Histiocytic Infiltration, Mild [2]: 1
Lymph Node, Mes. Histiocytic Infiltration, Minimal [2]: 4
Spleen Histiocytic Infiltration [2]: 2
Spleen Histiocytic Infiltration, Marked [2]: 0
Spleen Histiocytic Infiltration, Mild [2]: 0
Spleen Histiocytic Infiltration, Minimal [2]: 2
Spleen Histiocytic Infiltration, Moderate [2]: 0
Died or Sacrificed Moribund (125 mg/kg F): 0
ALT (125 mg/kg F, end of dosing): 20 IU/L
APPT (125 mg/kg F, end of dosing): 14.4* seconds
AST (125 mg/kg F, end of dosing): 76* IU/L
Body Weight, percent difference from controls (125 mg/kg F, end of dosing): −5.5%
Eosinophils (125 mg/kg F, end of dosing): 0.08 10^3/cmm
Erythrocytes (125 mg/kg F, end of dosing): 6.90* 10^6/cmm
Food Consumption, percent difference from controls (125 mg/kg F, end of dosing): −12.5* %
GGT (125 mg/kg F, end of dosing): 0.53 IU/L
Hematocrit (125 mg/kg F, end of dosing): 39.1* %
Hemoglobin (125 mg/kg F, end of dosing): 13.5 g/dL
Leukocytes (125 mg/kg F, end of dosing): 9.49 10^3/cmm
Liver weight (absolute), percent difference from controls (125 mg/kg F, end of dosing): −0.6%
Lymphocytes (125 mg/kg F, end of dosing): 7.35 10^3/cmm
Neutrophils (125 mg/kg F, end of dosing): 1.64 10^3/cmm
Spleen weight (absolute), percent difference from controls (125 mg/kg F, end of dosing): −11.2%
Bone Marrow, Sternum Hyperplasia [3]: 0
Bone Marrow, Sternum Hyperplasia, Mild [3]: 0
Bone Marrow, Sternum Hyperplasia, Minimal [3]: 0
Gross Pathology: Enlarged Pancreatic Lymph Nodes [3]: 1
Gross Pathology: Pale Adrenal [3]: 0
Gross Pathology: Pale Liver [3]: 10
Gross Pathology: Pale Lymph Nodes [3]: 0
Gross Pathology: Pale Ovaries [3]: 1
Gross Pathology: Pale Pituitary [3]: 0
Gross Pathology: Pale SQ Skin [3]: 3
Liver Focal Necrosis [3]: 0
Liver Focal Necrosis, Minimal [3]: 0
Liver Histiocytic Infiltration [3]: 9
Liver Histiocytic Infiltration, Mild [3]: 7
Liver Histiocytic Infiltration, Minimal [3]: 1
Liver Histiocytic Infiltration, Moderate [3]: 1
Liver Vacuolation [3]: 10
Liver Vacuolation, Mild [3]: 4
Liver Vacuolation, Minimal [3]: 6
Lymph Node, Man. Histiocytic Infiltration [3]: 3
Lymph Node, Man. Histiocytic Infiltration, Mild [3]: 0
Lymph Node, Man. Histiocytic Infiltration, Minimal [3]: 2
Lymph Node, Man. Histiocytic Infiltration, Moderate [3]: 1
Lymph Node, Mes. Histiocytic Infiltration [3]: 10
Lymph Node, Mes. Histiocytic Infiltration, Mild [3]: 5
Lymph Node, Mes. Histiocytic Infiltration, Minimal [3]: 5
Lymph Node, Mes. Histiocytic Infiltration, Moderate [3]: 0
Ovary Histiocytic Infiltration [3]: 10
Ovary Histiocytic Infiltration, Mild [3]: 0
Ovary Histiocytic Infiltration, Minimal [3]: 10
Ovary Histiocytic Infiltration, Moderate [3]: 0
Skin, Dermis Histiocytic Infiltration [3]: 2
Skin, Dermis Histiocytic Infiltration, Marked [3]: 0
Skin, Dermis Histiocytic Infiltration, Mild [3]: 1
Skin, Dermis Histiocytic Infiltration, Moderate [3]: 1
Skin, SQ Histiocytic Infiltration [3]: 2
Skin, SQ Histiocytic Infiltration, Mild [3]: 2
Spleen Histiocytic Infiltration [3]: 9
Spleen Histiocytic Infiltration, Marked [3]: 1
Spleen Histiocytic Infiltration, Mild [3]: 4
Spleen Histiocytic Infiltration, Moderate [3]: 3
ALT (125 mg/kg F, end of recovery): 21 IU/L
APPT (125 mg/kg F, end of recovery): 15.4 s
AST (125 mg/kg F, end of recovery): 68 IU/L
Body Weight, percent difference from controls (125 mg/kg F, end of recovery): −3.9%
Food Consumption, percent difference from controls (125 mg/kg F, end of recovery): −10.5%
GGT (125 mg/kg F, end of recovery): 0.63* IU/L
Liver weight (absolute), percent difference from controls (125 mg/kg F, end of recovery): +3.5%
Spleen weight (absolute), percent difference from controls (125 mg/kg F, end of recovery): −3.4%
Adrenal Gland Vacuolation [4]: 5
Adrenal Gland Vacuolation, Marked [4]: 0
Adrenal Gland Vacuolation, Mild [4]: 4
Adrenal Gland Vacuolation, Minimal [4]: 0
Adrenal Gland Vacuolation, Moderate [4]: 1
Gross Pathology: Enlarged Spleen [4]: 0
Gross Pathology: Pale Iliac Lymph Node [4]: 3
Gross Pathology: Pale Liver [4]: 5
Gross Pathology: Pale Ovaries [4]: 0
Gross Pathology: Pale Pancreatic Lymph Node [4]: 2
Liver Focal Necrosis [4]: 0
Liver Focal Necrosis, Mild [4]: 0
Liver Focal Necrosis, Minimal [4]: 0
Liver Histiocytic Infiltration [4]: 5
Liver Histiocytic Infiltration, Mild [4]: 3
Liver Histiocytic Infiltration, Minimal [4]: 2
Liver Histiocytic Infiltration, Moderate [4]: 0
Liver Multifocal Necrosis [4]: 1
Liver Multifocal Necrosis, Mild [4]: 1
Liver Multifocal Necrosis, Moderate [4]: 0
Liver Vacuolation [4]: 5
Liver Vacuolation, Mild [4]: 4
Liver Vacuolation, Minimal [4]: 0
Liver Vacuolation, Moderate [4]: 1
Lymph Node, Man. Histiocytic Infiltration [4]: 1
Lymph Node, Man. Histiocytic Infiltration, Mild [4]: 0
Lymph Node, Man. Histiocytic Infiltration, Minimal [4]: 2
Lymph Node, Man. Histiocytic Infiltration, Moderate [4]: 0
Lymph Node, Mes. Histiocytic Infiltration [4]: 5
Lymph Node, Mes. Histiocytic Infiltration, Mild [4]: 1
Lymph Node, Mes. Histiocytic Infiltration, Minimal [4]: 4
Ovary Histiocytic Infiltration [4]: 5
Ovary Histiocytic Infiltration, Mild [4]: 2
Ovary Histiocytic Infiltration, Minimal [4]: 3
Ovary Histiocytic Infiltration, Moderate [4]: 0
Spleen Histiocytic Infiltration [4]: 2
Spleen Histiocytic Infiltration, Marked [4]: 0
Spleen Histiocytic Infiltration, Mild [4]: 0
Spleen Histiocytic Infiltration, Minimal [4]: 2
Spleen Histiocytic Infiltration, Moderate [4]: 0
Died or Sacrificed Moribund (125 mg/kg M): 0
ALT (125 mg/kg M, end of dosing): 25 IU/L
APPT (125 mg/kg M, end of dosing): 15.9* seconds
AST (125 mg/kg M, end of dosing): 83 IU/L
Body Weight, percent difference from controls (125 mg/kg M, end of dosing): −8.7* %
Eosinophils (125 mg/kg M, end of dosing): 0.08 10^3/cmm
